Values after ≈ are worked out from the molar mass of the structure shown.
Columns and labels:
[1] = tested on: Haemophilus influenzae; assay: %TMIC in Haemophilus influenzae SR24169 clinical isolate based on viable cell reduction at 24 hrs index by minimum antibacterial activity criteria based in vitro pharmacodynamic model; type: functional
[2] = tested on: Streptococcus pneumoniae; assay: Half maximum antibacterial activity against erythromycin-resistant Streptococcus pneumoniae SR26132 clinical isolate expressing ermB gene based on viable cell reduction at 24 hrs index in vitro pharmacodynamic model; type: ADME, organism-based
[3] = tested on: Streptococcus pneumoniae; assay: Ratio of AUC (0 to 24 hrs) to MIC in erythromycin-resistant Streptococcus pneumoniae SR26132 clinical isolate expressing ermB gene by bacteriostatic effect criteria based in vitro pharmacodynamic model; type: functional
[4] = tested on: Haemophilus influenzae; assay: Ratio of AUC (0 to 24 hrs) to MIC in Haemophilus influenzae SR24169 clinical isolate based on viable cell reduction at 24 hrs index by minimum antibacterial activity criteria based in vitro pharmacodynamic model; type: functional
[5] = tested on: Haemophilus influenzae; assay: Antibacterial activity against Haemophilus influenzae SR24169 clinical isolate by broth microdilution method; type: functional
[6] = tested on: Haemophilus influenzae; assay: %TMIC in Haemophilus influenzae SR24169 clinical isolate based on area above the killing curve index by maximum antibacterial activity criteria based in vitro pharmacodynamic model; type: functional
[7] = tested on: Streptococcus pneumoniae; assay: Cmax in erythromycin-resistant Streptococcus pneumoniae SR26143 clinical isolate expressing mefA gene in vitro pharmacodynamic model; type: ADME, organism-based; conditions: in vivo
[8] = tested on: Streptococcus pneumoniae; assay: Ratio of AUC (0 to 24 hrs) to MIC in erythromycin-susceptible Streptococcus pneumoniae SR26229 clinical isolate by maximal efficacy criteria based in vitro pharmacodynamic model; type: functional
[9] = tested on: Haemophilus influenzae; assay: Ratio of AUC (0 to 24 hrs) to MIC in Haemophilus influenzae SR24169 clinical isolate based on area above the killing curve index by half maximum antibacterial activity criteria based in vitro pharmacodynamic model; type: functional
[10] = tested on: Streptococcus pneumoniae; assay: Ratio of AUC (0 to 24 hrs) to MIC in erythromycin-susceptible Streptococcus pneumoniae SR26229 clinical isolate by bacteriostatic effect criteria based in vitro pharmacodynamic model; type: functional
[11] = tested on: Streptococcus pneumoniae; assay: Minimum antibacterial activity against erythromycin-susceptible Streptococcus pneumoniae SR26229 clinical isolate based on area above the killing curve index in vitro pharmacodynamic model; type: ADME, organism-based; conditions: in vivo
[12] = tested on: Haemophilus influenzae; assay: Ratio of Cmax to MIC in Haemophilus influenzae SR24169 clinical isolate based on area above the killing curve index by maximum antibacterial activity criteria based in vitro pharmacodynamic model; type: functional
[13] = tested on: Streptococcus pneumoniae; assay: Cmax in erythromycin-susceptible Streptococcus pneumoniae SR26229 clinical isolate in vitro pharmacodynamic model; type: ADME, organism-based; conditions: in vivo
[14] = tested on: Haemophilus influenzae; assay: %TMIC in Haemophilus influenzae SR24169 clinical isolate based on area above the killing curve index by half maximum antibacterial activity criteria based in vitro pharmacodynamic model; type: functional
[15] = tested on: Streptococcus pneumoniae; assay: Maximum antibacterial activity against erythromycin-resistant Streptococcus pneumoniae SR26132 clinical isolate expressing ermB gene based on area above the killing curve index in vitro pharmacodynamic model; type: ADME, organism-based; conditions: in vivo
[16] = tested on: Haemophilus influenzae; assay: Cmax in Haemophilus influenzae SR24169 clinical isolate in vitro pharmacodynamic model; type: ADME, organism-based; conditions: in vivo
[17] = tested on: Streptococcus pneumoniae; assay: Half maximum antibacterial activity against erythromycin-resistant Streptococcus pneumoniae SR26143 clinical isolate expressing mefA gene based on viable cell reduction at 24 hrs index in vitro pharmacodynamic model; type: ADME, organism-based
[18] = tested on: Haemophilus influenzae; assay: %TMIC in Haemophilus influenzae SR24169 clinical isolate based on area above the killing curve index by minimum antibacterial activity criteria based in vitro pharmacodynamic model; type: functional
[19] = tested on: Haemophilus influenzae; assay: Ratio of Cmax to MIC in Haemophilus influenzae SR24169 clinical isolate based on viable cell reduction at 24 hrs index by minimum antibacterial activity criteria based in vitro pharmacodynamic model; type: functional
[20] = tested on: Haemophilus influenzae; assay: Ratio of AUC (0 to 24 hrs) to MIC in Haemophilus influenzae SR24169 clinical isolate based on area above the killing curve index by maximum antibacterial activity criteria based in vitro pharmacodynamic model; type: functional
[21] = tested on: Streptococcus pneumoniae; assay: Maximum antibacterial activity against erythromycin-susceptible Streptococcus pneumoniae SR26229 clinical isolate based on viable cell reduction at 24 hrs index in vitro pharmacodynamic model; type: ADME, organism-based
[22] = tested on: Streptococcus pneumoniae; assay: Antibacterial activity against erythromycin-resistant Streptococcus pneumoniae SR26143 clinical isolate expressing mefA gene by broth microdilution method; type: functional
[23] = tested on: Streptococcus pneumoniae; assay: Half life in erythromycin-susceptible Streptococcus pneumoniae SR26229 clinical isolate in vitro pharmacodynamic model; type: ADME, organism-based; conditions: in vivo
[24] = tested on: Streptococcus pneumoniae; assay: Half life in erythromycin-resistant Streptococcus pneumoniae SR26143 clinical isolate expressing mefA gene in vitro pharmacodynamic model; type: ADME, organism-based; conditions: in vivo
[25] = tested on: Streptococcus pneumoniae; assay: Half maximum antibacterial activity against erythromycin-susceptible Streptococcus pneumoniae SR26229 clinical isolate based on area above the killing curve index in vitro pharmacodynamic model; type: ADME, organism-based; conditions: in vivo
[26] = tested on: Haemophilus influenzae; assay: Ratio of AUC (0 to 24 hrs) to MIC in Haemophilus influenzae SR24169 clinical isolate based on viable cell reduction at 24 hrs index by maximum antibacterial activity criteria based in vitro pharmacodynamic model; type: functional
[27] = tested on: Streptococcus pneumoniae; assay: Maximum antibacterial activity against erythromycin-susceptible Streptococcus pneumoniae SR26229 clinical isolate based on area above the killing curve index in vitro pharmacodynamic model; type: ADME, organism-based; conditions: in vivo
[28] = tested on: Streptococcus pneumoniae; assay: Maximum antibacterial activity against erythromycin-resistant Streptococcus pneumoniae SR26143 clinical isolate expressing mefA gene based on area above the killing curve index in vitro pharmacodynamic model; type: ADME, organism-based; conditions: in vivo
[29] = tested on: Streptococcus pneumoniae; assay: AUC (0 to 24 hrs) in erythromycin-resistant Streptococcus pneumoniae SR26143 clinical isolate expressing mefA in vitro pharmacodynamic model; type: ADME, organism-based; parameters: time < 24 hr; conditions: in vivo
[30] = tested on: Streptococcus pneumoniae; assay: Half maximum antibacterial activity against erythromycin-resistant Streptococcus pneumoniae SR26143 clinical isolate expressing mefA gene based on area above the killing curve index in vitro pharmacodynamic model; type: ADME, organism-based; conditions: in vivo
[31] = tested on: Streptococcus pneumoniae; assay: Minimum antibacterial activity against erythromycin-susceptible Streptococcus pneumoniae SR26229 clinical isolate based on viable cell reduction at 24 hrs index in vitro pharmacodynamic model; type: ADME, organism-based
[32] = tested on: Streptococcus pneumoniae; assay: Antibacterial activity against erythromycin-resistant Streptococcus pneumoniae SR26132 clinical isolate expressing ermB gene by broth microdilution method; type: functional
[33] = tested on: Haemophilus influenzae; assay: Half life in Haemophilus influenzae SR24169 clinical isolate in vitro pharmacodynamic model; type: ADME, organism-based; conditions: in vivo
[34] = tested on: Streptococcus pneumoniae; assay: Ratio of AUC (0 to 24 hrs) to MIC in erythromycin-resistant Streptococcus pneumoniae SR26132 clinical isolate expressing ermB gene by maximal efficacy criteria based in vitro pharmacodynamic model; type: functional
[35] = tested on: Streptococcus pneumoniae; assay: Antibacterial activity against erythromycin-susceptible Streptococcus pneumoniae SR26229 clinical isolate by broth microdilution method; type: functional
[36] = tested on: Streptococcus pneumoniae; assay: Maximum antibacterial activity against erythromycin-resistant Streptococcus pneumoniae SR26132 clinical isolate expressing ermB gene based on viable cell reduction at 24 hrs index in vitro pharmacodynamic model; type: ADME, organism-based
[37] = tested on: Streptococcus pneumoniae; assay: Cmax in erythromycin-resistant Streptococcus pneumoniae SR26132 clinical isolate expressing ermB gene in vitro pharmacodynamic model; type: ADME, organism-based; conditions: in vivo
[38] = tested on: Streptococcus pneumoniae; assay: Minimum antibacterial activity against erythromycin-resistant Streptococcus pneumoniae SR26143 clinical isolate expressing mefA gene based on viable cell reduction at 24 hrs index in vitro pharmacodynamic model; type: ADME, organism-based
[39] = tested on: Streptococcus pneumoniae; assay: AUC (0 to 24 hrs) in erythromycin-susceptible Streptococcus pneumoniae SR26229 clinical isolate in vitro pharmacodynamic model; type: ADME, organism-based; parameters: time < 24 hr; conditions: in vivo
[40] = tested on: Streptococcus pneumoniae; assay: Ratio of AUC (0 to 24 hrs) to MIC in erythromycin-resistant Streptococcus pneumoniae SR26143 clinical isolate expressing mefA gene by maximal efficacy criteria based in vitro pharmacodynamic model; type: functional
[41] = tested on: Haemophilus influenzae; assay: Ratio of Cmax to MIC in Haemophilus influenzae SR24169 clinical isolate based on area above the killing curve index by half maximum antibacterial activity criteria based in vitro pharmacodynamic model; type: functional
[42] = tested on: Streptococcus pneumoniae; assay: Half maximum antibacterial activity against erythromycin-resistant Streptococcus pneumoniae SR26132 clinical isolate expressing ermB gene based on area above the killing curve index in vitro pharmacodynamic model; type: ADME, organism-based; conditions: in vivo
[43] = tested on: Streptococcus pneumoniae; assay: Maximum antibacterial activity against erythromycin-resistant Streptococcus pneumoniae SR26143 clinical isolate expressing mefA gene based on viable cell reduction at 24 hrs index in vitro pharmacodynamic model; type: ADME, organism-based
[44] = tested on: Streptococcus pneumoniae; assay: Half maximum antibacterial activity against erythromycin-susceptible Streptococcus pneumoniae SR26229 clinical isolate based on viable cell reduction at 24 hrs index in vitro pharmacodynamic model; type: ADME, organism-based
[45] = tested on: Haemophilus influenzae; assay: Ratio of AUC (0 to 24 hrs) to MIC in Haemophilus influenzae SR24169 clinical isolate by maximal efficacy criteria based in vitro pharmacodynamic model; type: functional
[46] = tested on: Haemophilus influenzae; assay: Ratio of Cmax to MIC in Haemophilus influenzae SR24169 clinical isolate based on area above the killing curve index by minimum antibacterial activity criteria based in vitro pharmacodynamic model; type: functional
[47] = tested on: Haemophilus influenzae; assay: %TMIC in Haemophilus influenzae SR24169 clinical isolate based on viable cell reduction at 24 hrs index by maximum antibacterial activity criteria based in vitro pharmacodynamic model; type: functional
[48] = tested on: Streptococcus pneumoniae; assay: Half life in erythromycin-resistant Streptococcus pneumoniae SR26132 clinical isolate expressing ermB gene in vitro pharmacodynamic model; type: ADME, organism-based; conditions: in vivo
[49] = tested on: Haemophilus influenzae; assay: Ratio of Cmax to MIC in Haemophilus influenzae SR24169 clinical isolate based on viable cell reduction at 24 hrs index by maximum antibacterial activity criteria based in vitro pharmacodynamic model; type: functional
[50] = tested on: Haemophilus influenzae; assay: AUC (0 to 24 hrs) in Haemophilus influenzae SR24169 clinical isolate in vitro pharmacodynamic model; type: ADME, organism-based; parameters: time < 24 hr; conditions: in vivo
[51] = tested on: Streptococcus pneumoniae; assay: Ratio of AUC (0 to 24 hrs) to MIC in erythromycin-resistant Streptococcus pneumoniae SR26143 clinical isolate expressing mefA gene by bacteriostatic effect criteria based in vitro pharmacodynamic model; type: functional
[52] = tested on: Haemophilus influenzae; assay: Ratio of AUC (0 to 24 hrs) to MIC in Haemophilus influenzae SR24169 clinical isolate based on viable cell reduction at 24 hrs index by half maximum antibacterial activity criteria based in vitro pharmacodynamic model; type: functional
[53] = tested on: Streptococcus pneumoniae; assay: AUC (0 to 24 hrs) in erythromycin-resistant Streptococcus pneumoniae SR26132 clinical isolate expressing ermB gene in vitro pharmacodynamic model; type: ADME, organism-based; parameters: time < 24 hr; conditions: in vivo
[54] = tested on: Haemophilus influenzae; assay: Ratio of AUC (0 to 24 hrs) to MIC in Haemophilus influenzae SR24169 clinical isolate based on area above the killing curve index by minimum antibacterial activity criteria based in vitro pharmacodynamic model; type: functional
[55] = tested on: Streptococcus pneumoniae; assay: Minimum antibacterial activity against erythromycin-resistant Streptococcus pneumoniae SR26132 clinical isolate expressing ermB gene based on viable cell reduction at 24 hrs index in vitro pharmacodynamic model; type: ADME, organism-based
[56] = tested on: Haemophilus influenzae; assay: Ratio of AUC (0 to 24 hrs) to MIC in Haemophilus influenzae SR24169 clinical isolate by bacteriostatic effect criteria based in vitro pharmacodynamic model; type: functional

CC[C@H]1OC(=O)[C@H](C)C(=O)[C@H](C)[C@@H](O[C@@H]2O[C@H](C)C[C@H](N(C)C)[C@H]2O)[C@@]2(C)C[C@@H](C)/C(=N\C(C)=O)[C@H](C)C(OC/C(=N\OCc3ccc(-n4cccn4)nc3)CO2)[C@]1(C)O (single isomer, unassigned)
Ratio [1]: -1.1805
Activity [2]: 5.11
Ratio [3]: 4.66
Ratio [4]: -2.4461
MIC [5]: 8 µg/mL (≈ 9.51 µM)
Ratio [6]: 79.0912
Cmax [7]: 8 ng/mL
Ratio [8]: 16.3
Ratio [9]: 6.9338
Ratio [10]: 9.01
Activity [11]: 0
Ratio [12]: 75.7785
Cmax [13]: 4 ng/mL
Ratio [14]: 3.0676
Activity [15]: 84.15
Cmax [16]: 506 ng/mL
Activity [17]: 15.89
Ratio [18]: 0
Ratio [19]: -2.3622
Ratio [20]: 80.2825
Activity [21]: 6.22
MIC [22]: 0.125 µg/mL (≈ 0.149 µM)
t1/2 [23]: 17.6 h
t1/2 [24]: 17.6 h
Activity [25]: 9.96
Ratio [26]: 6.4436
Activity [27]: 78.23
Activity [28]: 80.2
AUC [29]: 140 ng·h/mL
Activity [30]: 16.64
Activity [31]: 2.64
MIC [32]: 0.25 µg/mL (≈ 0.297 µM)
t1/2 [33]: 2.22 h
Ratio [34]: 22
MIC [35]: 0.063 µg/mL (≈ 0.0749 µM)
Activity [36]: 5.98
Cmax [37]: 16 ng/mL
Activity [38]: 2.36
AUC [39]: 70 ng·h/mL
Ratio [40]: 22.3
Ratio [41]: 0.6894
Activity [42]: 8.75
Activity [43]: 6.12
Activity [44]: 9.35
Ratio [45]: 10.8
Ratio [46]: 0
Ratio [47]: 4.6778
t1/2 [48]: 17.6 h
Ratio [49]: 6.0956
AUC [50]: 8610 ng·h/mL
Ratio [51]: 15.2
Ratio [52]: 10.1172
AUC [53]: 280 ng·h/mL
Ratio [54]: 0
Activity [55]: -2.14
Ratio [56]: 9.63

Reference: ChEMBL document CHEMBL1671738, “In vitro pharmacokinetic and pharmacodynamic evaluation of S-013420 against Haemophilus influenzae and Streptococcus pneumoniae” (Antimicrob Agents Chemother, 2010)
